Assay results taken from patent US20050070719A1, “Inhibitors of dipeptidyl peptidase iv” (priority 2001, published 2005).
Where a name gives a salt, the structure may show the parent alone.

Legend:
DPP IV = biological target: T1, DPP IV (Rattus norvegicus, UniProt P14740); experiment: Measuring DPP IV inhibition (rat plasma, fluorogenic peptide substrate); assay type: biochemical; settings: substrate H-Gly-Pro-alpha methyl coumarin, 30 min, room temp
T1 construct: Add 25 uL of rat plasma or buffer to wells; from tissue; host or cells: rat plasma
Protocol: Dilute 1 volume of rat plasma ([…] with sodium citrate) to 2.5 volumes assay buffer (25 mM HEPES, 140 mM NaCl, 1% BSA [added on the day of the assay]; pH 7.8) to yield approximately 350 micrograms total protein/well in a 96-well plate. […] Dilute the peptide substrate (H-Gly-Pro-alpha methyl coumarin, 10 mM stock in 100% DMSO) 1:100 in assay buffer. Compounds of this invention are diluted in 100% DMSO. Add 10 microliter of diluted compounds or DMSO vehicle to wells. Add 25 uL of rat plasma or buffer to wells. Add 25 uL MgCl2 to all wells. Vortex gently for 1 minute, then pre-incubate at room temp for 10 minutes. Start the reaction by adding 50 uL peptide substrate (no vortexing), and incubate the plate at room temp in the dark for 30 minutes. […] Read the plate at 380 nm (excitation) and 460 nm (emission).

[1] = tested on: MPTP-lesioned mouse model of Parkinson's disease; experiment: In vivo reinnervation of the denervated striatum by nigrostriatal dopaminergic fibers (MPTP-lesioned mouse model of Parkinson's disease); settings: CD1 mice, MPTP 34 mg/kg i.p. days 1-5; compound 10 mg/kg s.c. once daily days 1-5; analysis day 7
Excerpt: MPTP (N-methyl-4-phenyl-1,2,3,6-tetrahydropyridine) is a systemically available neurotoxin specific to nigrostriatal dopaminergic neurons, i.e. to the cells that degenerate in human Parkinson's disease. Administration of MPTP to mice leads to a selective partial destruction of the mesotelencephalic dopaminergic projection, and to a loss of dopamine and dopaminergic fibres in the corpus striatum, which is the main forebrain target of midbrain dopaninergic neurons.
Young adult male CD1 albino mice (Harlan-Sprague Dawley; 22-25 g) were dosed i.p. with the dopamine cell-specific neurotoxin N-methyl-4-phenyl-1,2,3,6-tetrahydropyridine (MPTP hydrochloride, calculated as 34 mg/kg free base), dissolved in saline at a concentration of 3.4 mg/ml free base once daily on days one to five. […]
Blinded analysis of TH fiber density in the central striatum was performed at 630× magnification. […] The percentage of sample field covered by TH positive processes and terminals was calculated using an image analysis program (“Simple,” Compix Inc., Pittsburgh, Pa.). The mean striatal innervation density was calculated for each group. The magnitude of striatal deafferentation due to the MPTP lesion was assessed by dividing the observed striatal innervation values obtained in MPTP/vehicle treated cases by the mean striatal innervation density in the Vehicle/Vehicle group and expressed as % loss. […]

T1 sequence (P14740 37-767 limits assumed): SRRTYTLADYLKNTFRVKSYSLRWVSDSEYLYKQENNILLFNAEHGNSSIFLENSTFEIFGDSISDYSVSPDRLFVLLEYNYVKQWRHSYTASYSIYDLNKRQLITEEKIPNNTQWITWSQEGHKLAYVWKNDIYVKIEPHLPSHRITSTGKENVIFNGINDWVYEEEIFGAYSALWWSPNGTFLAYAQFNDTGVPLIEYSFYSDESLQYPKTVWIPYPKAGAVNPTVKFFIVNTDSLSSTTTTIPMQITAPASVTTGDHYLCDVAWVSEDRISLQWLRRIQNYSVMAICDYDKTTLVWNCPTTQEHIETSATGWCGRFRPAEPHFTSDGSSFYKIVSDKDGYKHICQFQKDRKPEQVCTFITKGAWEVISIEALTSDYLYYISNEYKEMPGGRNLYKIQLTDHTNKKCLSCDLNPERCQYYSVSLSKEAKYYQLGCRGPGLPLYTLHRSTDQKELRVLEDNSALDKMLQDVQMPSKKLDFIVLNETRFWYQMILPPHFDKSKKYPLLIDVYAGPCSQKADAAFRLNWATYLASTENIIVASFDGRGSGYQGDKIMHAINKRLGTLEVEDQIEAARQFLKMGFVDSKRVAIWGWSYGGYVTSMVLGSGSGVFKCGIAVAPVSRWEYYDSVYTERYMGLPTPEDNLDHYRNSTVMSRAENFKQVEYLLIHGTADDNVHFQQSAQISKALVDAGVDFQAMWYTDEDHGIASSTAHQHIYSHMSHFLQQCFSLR

SMILES: N#CC1CCN1C(=O)C(N)C1CCCCC1 (centres unmarked) [Example 16, 1-(2-amino-2-cyclohexyl-acetyl)azetidine-2-carbonitrile]
- IC50 (DPP IV): 1200 nM

SMILES: N[C@H](C(=O)N1CCCCC1)C1CCCCC1 [Example 8, 1-(L-α-cyclohexylglycyl)piperidine hydrogen chloride]
- IC50 (DPP IV): 22200 nM

SMILES: N#CC1CSCN1C(=O)C1CC2CCCCC2N1 (centres unmarked) [Example 5, 3-(octahydroindole-2-carbonyl)thiazolidine4-carbonitrile hydrochloride]
- IC50 (DPP IV): 3.8 nM

SMILES: CCC(C)[C@H](N)C(=O)N1CC(F)C[C@H]1C#N (some centres unmarked) [Example 13, 2-cyano-4-fluoro-1-(sec-butyl)glycylpyrrolidine hydrogen chloride]
- IC50 (DPP IV): 6.2 nM

SMILES: O=C(CNC12CC3CC(CC(C3)C1)C2)N1CCSC1 [Example 12, 1-[2-(adamant-1-ylamino)acetyl]-3-thiopyrrolidine]
- IC50 (DPP IV): 4820 nM

SMILES: N#CC1CCN1C(=O)CNC12CC3CC(CC(C3)C1)C2 (centres unmarked) [Example 18, 1-[2-(adamant-1-ylamino)acetyl]-azetidine-2-carbonitrile]
- IC50 (DPP IV): 223 nM

SMILES: Cl.N#CC1CCCN1C(=O)C1CC2CCCCC2N1 (centres unmarked) [Example 1, 1-(octahydroindole-2-carbonyl)pyrrolidine-2-carbonitrile hydrochloride]
- IC50 (DPP IV): 13.9 nM
- % protection of striatal tyrosine hydroxylase-immunoreactive fibres [1]: 32.5%

SMILES: N#C[C@@H]1CC(F)CN1C(=O)C(N)C1CCCCC1 (some centres unmarked) [Example 14, 2-Cyano-4-fluoro-1-cyclohexylglycylpyrrolidine hydrogen chloride]
- IC50 (DPP IV): 6.5 nM

SMILES: O=C(C1CC2CCCCC2N1)N1CCCC1 (centres unmarked) [Example 10, 1-(octahydroindole-2-carbonyl)pyrrolidine hydrochloride]
- IC50 (DPP IV): 10000 nM

SMILES: N#CC1CCCN1C(=O)C1NCC2CC21 (centres unmarked) [Example 2, 1-(3-azabicyclo[3.1.0]hexane-2-carbonyl)pyrrolidine-2-carbonitrile hydrochloride]
- IC50 (DPP IV): 60.7 nM

SMILES: N#CC1CCN1C(=O)C1CCCN1 (centres unmarked) [Example 17, 1-(pyrrolidine-2-carbonyl)azetidine-2-carbonitrile]
- IC50 (DPP IV): 1100 nM

SMILES: Cl.N#CC1CCN1C(=O)C1CC2CCCCC2N1 (centres unmarked) [Example 20, 1-(octahydroindole-2-carbonyl)azetidine-2-carbonitrile hydrochloride]
- IC50 (DPP IV): 178 nM
- % protection of striatal tyrosine hydroxylase-immunoreactive fibres [1]: 32.6%

SMILES: N[C@H](C(=O)N1CC=CC1)C1CCCCC1 [Example 6, 1-(L-α-cyclohexylglycyl)-3-pyrroline hydrogen chloride]
- IC50 (DPP IV): 1880 nM

SMILES: N#CC1CC(F)CN1C(=O)C1CC2CCCCC2N1 (centres unmarked) [Example 3, 2-cyano-4-fluoro-1-(octahydroindole-2-carbonyl)-pyrrolidine hydrogen chloride]
- IC50 (DPP IV): 1.65 nM

SMILES: N#C[C@@H]1CCCN1C(=O)[C@H]1NCC2CCCCC21 (some centres unmarked) [Example 4, 2-(L)-Cyano-(octahydro-isoindolyl)pyrrolidine hydrogen chloride]
- IC50 (DPP IV): 551 nM
